Common to all, as to experiment: relative viability (nuclei count vs DMSO), 5 days (fraction); higher = more cells survive
Compound in the test “MK-8033 + Tozasertib”: Cn1cc(-c2cnc3ccc4ccc(CS(=O)(=O)NCc5ccccn5)cc4c(=O)c3c2)cn1 [MK-8033] + Cc1cc(Nc2cc(N3CCN(C)CC3)nc(Sc3ccc(NC(=O)C4CC4)cc3)n2)n[nH]1 [Tozasertib] (partner 0.1 µM)
The method in brief:
(§1)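 Relative viability equals treated-well nuclei counts divided by vehicle-well nuclei counts. Counts came from 4× images of lung cancer cell lines grown in 1536-well plates for 5 days after pin-tool dosing on the day after seeding. Dosing used one drug alone or a fixed anchor-drug dose plus five library-drug doses (not always all listed) in √10 steps, and values are medians of duplicate plates.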

Compound in the test “Irinotecan + Pemetrexed”: CCc1c2c(nc3ccc(OC(=O)N4CCC(N5CCCCC5)CC4)cc13)-c1cc3c(c(=O)n1C2)COC(=O)[C@]3(O)CC [Irinotecan] + Nc1nc2[nH]cc(CCc3ccc(C(=O)N[C@@H](CCC(=O)O)C(=O)O)cc3)c2c(=O)[nH]1 [Pemetrexed] (partner 0.2 µM)
The method in brief: as §1

Compound in the test “Irinotecan + Alpelisib”: CCc1c2c(nc3ccc(OC(=O)N4CCC(N5CCCCC5)CC4)cc13)-c1cc3c(c(=O)n1C2)COC(=O)[C@]3(O)CC [Irinotecan] + Cc1nc(NC(=O)N2CCC[C@H]2C(N)=O)sc1-c1ccnc(C(C)(C)C(F)(F)F)c1 [Alpelisib] (partner 2 µM)
The method in brief:
as §1

Compound in the test “RU-SKI 43 + Navitoclax”: CC[C@@H](C)CNCC(=O)N1CCC2=C([C@@H]1COC3=CC=CC(=C3)C)C=CS2 [RU-SKI 43] + CC1(C)CCC(c2ccc(Cl)cc2)=C(CN2CCN(c3ccc(C(=O)NS(=O)(=O)c4ccc(N[C@H](CCN5CCOCC5)CSc5ccccc5)c(S(=O)(=O)C(F)(F)F)c4)cc3)CC2)C1 [Navitoclax] (partner 0.5 µM)
Put shortly: as §1

With UMC-11, the relative viability with MK-8033 + Tozasertib (first compound 0.02 µM) turned out to be 0.201; with MK-8033 + Tozasertib (first compound 0.2 µM), 0.193; with MK-8033 + Tozasertib (first compound 0.6325 µM), 0.205; with MK-8033 + Tozasertib (first compound 2 µM) it was 0.205; with Irinotecan + Pemetrexed (first compound 0.6325 µM) it was 0.46; with Irinotecan + Pemetrexed (first compound 2 µM), 0.436. The relative viability with Irinotecan + Pemetrexed (first compound 6.325 µM) stood at 0.288; with Irinotecan + Pemetrexed (first compound 20 µM), 0.228; with Irinotecan + Alpelisib (first compound 0.6325 µM), 0.572; with Irinotecan + Alpelisib (first compound 2 µM) it was 0.401; with Irinotecan + Alpelisib (first compound 6.325 µM), 0.214; in the test with Irinotecan + Alpelisib (first compound 20 µM), 0.229. Also, the relative viability with RU-SKI 43 + Navitoclax (first compound 0.1 µM) came out at 0.276; with RU-SKI 43 + Navitoclax (first compound 0.3162 µM) it was 0.315; with RU-SKI 43 + Navitoclax (first compound 1 µM), 0.321; with RU-SKI 43 + Navitoclax (first compound 3.162 µM), 0.305; with RU-SKI 43 + Navitoclax (first compound 10 µM), 0.267.

Source of the values: the supplement of paper PMC10307832.
